Source: ChEMBL document CHEMBL1152303, “Synthesis and biological evaluation of a series of liver-selective phosphonic acid thyroid hormone receptor agonists and their prodrugs” (J Med Chem, 2008)
One block for each compound: values may come before it.

How the values were obtained:
Rattus norvegicus [1] = experiment: Reduction in total plasma cholesterol level in cholesterol-fed Sprague-Dawley rat at 0.2 mg/kg, ip after 24 hrs; type: functional; parameters: scale not given: the % may be the effect or the level left; details: route intraperitoneal
Rattus norvegicus [2] = experiment: Reduction in total plasma cholesterol level in cholesterol-fed orally dosed Sprague-Dawley rat after 24 hrs relative to control; type: functional; parameters: scale not given: the % may be the effect or the level left
[3] = Metabolic stability in human S9 liver fraction assessed as monoacid levels at 100 uM after 1 hr; type: ADME, subcellular; details: s9, 1 h
Rattus norvegicus [4] = experiment: Reduction in total plasma cholesterol level in cholesterol-fed Sprague-Dawley rat at 0.5 mg/kg, po after 24 hrs; type: functional; parameters: scale not given: the % may be the effect or the level left
[5] = Metabolic stability in human liver S9 fraction assessed as activation rate at 100 uM after 1 hr; type: ADME, subcellular; details: s9, 1 h
Rattus norvegicus [6] = experiment: Reduction in total plasma cholesterol level in cholesterol-fed orally dosed Sprague-Dawley rat after 24 hrs; type: functional; details: po
[7] = Metabolic stability in human S9 liver fraction assessed as prodrug remaining at 100 uM after 1 hr; type: ADME, subcellular; details: s9, 1 h
[8] = target: T1, Thyroid hormone receptor beta (Homo sapiens, UniProt P10828)
T1 sequence (P10828 whole entry): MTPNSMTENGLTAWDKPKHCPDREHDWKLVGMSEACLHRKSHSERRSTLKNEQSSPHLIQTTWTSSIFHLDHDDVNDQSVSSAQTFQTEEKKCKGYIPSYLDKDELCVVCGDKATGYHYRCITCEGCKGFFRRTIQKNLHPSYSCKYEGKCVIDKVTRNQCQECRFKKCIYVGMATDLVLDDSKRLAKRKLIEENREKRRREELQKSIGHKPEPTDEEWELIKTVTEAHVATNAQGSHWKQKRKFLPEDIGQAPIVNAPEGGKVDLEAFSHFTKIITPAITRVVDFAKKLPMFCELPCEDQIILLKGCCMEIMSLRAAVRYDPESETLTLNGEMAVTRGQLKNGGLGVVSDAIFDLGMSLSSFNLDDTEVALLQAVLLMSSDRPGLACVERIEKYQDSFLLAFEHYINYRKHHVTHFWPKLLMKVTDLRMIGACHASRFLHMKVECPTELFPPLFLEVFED
Description: Displacement of [125I]3,5,3'-triiodo-L-thyronine His-tagged human recombinant TRbeta1 by scintillation proximity assay

[9] = target: T2, Thyroid hormone receptor alpha (Homo sapiens, UniProt P10827)
T2 sequence (P10827 whole entry): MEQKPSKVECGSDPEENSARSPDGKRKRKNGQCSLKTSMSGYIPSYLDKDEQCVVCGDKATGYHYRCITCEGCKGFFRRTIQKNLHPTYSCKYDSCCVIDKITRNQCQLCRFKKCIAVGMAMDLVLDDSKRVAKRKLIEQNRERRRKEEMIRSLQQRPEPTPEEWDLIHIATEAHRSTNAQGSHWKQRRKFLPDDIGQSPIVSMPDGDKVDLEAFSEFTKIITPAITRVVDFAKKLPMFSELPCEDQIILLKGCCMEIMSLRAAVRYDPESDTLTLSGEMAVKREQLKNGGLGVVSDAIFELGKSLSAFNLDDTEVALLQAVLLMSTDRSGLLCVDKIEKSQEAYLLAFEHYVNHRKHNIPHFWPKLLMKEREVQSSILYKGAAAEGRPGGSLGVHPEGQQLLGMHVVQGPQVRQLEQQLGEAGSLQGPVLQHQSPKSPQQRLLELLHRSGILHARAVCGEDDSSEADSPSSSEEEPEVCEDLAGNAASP
Description: Displacement of [125I]3,5,3'-triiodo-L-thyronine from His-tagged human recombinant TRalpha1 by scintillation proximity assay

Rattus norvegicus [10] = experiment: Agonist activity at thyroid hormone receptor in Sprague-Dawley rat assessed as heart mGPDH activity at 1 mg/kg administered through osmotic pump infusion per ug protein; type: functional
Rattus norvegicus [11] = experiment: Agonist activity at thyroid hormone receptor in Sprague-Dawley rat assessed as liver mGPDH activity at 1 mg/kg administered through osmotic pump infusion per ug protein; type: functional
Rattus norvegicus [12] = experiment: Mean residence time in Sprague-Dawley rat assessed as 3,5-Dimethyl-4-(4'-hydroxy-3'-isopropylbenzyl)phenoxy]methylphosphonic acid level at 3 mg/kg, po; type: ADME, organism-based; parameters: dose 3 mg/kg, route oral; details: in vivo
Rattus norvegicus [13] = experiment: Tmax in Sprague-Dawley rat assessed as 3,5-Dimethyl-4-(4'-hydroxy-3'-isopropylbenzyl)phenoxy]methylphosphonic acid level at 3 mg/kg, iv; type: ADME, organism-based; parameters: dose 3 mg/kg, route intravenous; details: in vivo
Rattus norvegicus [14] = experiment: Mean absorption time in Sprague-Dawley rat at 3 mg/kg, po; type: ADME, organism-based; parameters: dose 3 mg/kg, route oral; details: in vivo
[15] = Tmax in Sprague-Dawley rat at 3 mg/kg, iv; type: ADME, organism-based; parameters: dose 3 mg/kg, route intravenous; details: in vivo
[16] = Mean residence time in Sprague-Dawley rat at 3 mg/kg, po; type: ADME, organism-based; parameters: dose 3 mg/kg, route oral; details: in vivo
Rattus norvegicus [17] = experiment: Tmax in Sprague-Dawley rat assessed as 3,5-Dimethyl-4-(4'-hydroxy-3'-isopropylbenzyl)phenoxy]methylphosphonic acid level at 3 mg/kg, po; type: ADME, organism-based; parameters: dose 3 mg/kg, route oral; details: in vivo
Rattus norvegicus [18] = experiment: Cmax in Sprague-Dawley rat at 3 mg/kg, iv; type: ADME, organism-based; parameters: dose 3 mg/kg, route intravenous; details: in vivo
Rattus norvegicus [19] = experiment: Cmax in Sprague-Dawley rat assessed as 3,5-Dimethyl-4-(4'-hydroxy-3'-isopropylbenzyl)phenoxy]methylphosphonic acid level at 3 mg/kg, iv; type: ADME, organism-based; parameters: dose 3 mg/kg, route intravenous; details: in vivo
Rattus norvegicus [20] = experiment: Mean residence time in Sprague-Dawley rat assessed as 3,5-Dimethyl-4-(4'-hydroxy-3'-isopropylbenzyl)phenoxy]methylphosphonic acid level at 3 mg/kg, iv; type: ADME, organism-based; parameters: dose 3 mg/kg, route intravenous; details: in vivo
[21] = AUClast in Sprague-Dawley rat at 3 mg/kg, iv; type: ADME, organism-based; parameters: time 0 - last, dose 3 mg/kg, route intravenous; details: plasma
Rattus norvegicus [22] = experiment: Cmax in Sprague-Dawley rat at 3 mg/kg, po; type: ADME, organism-based; parameters: dose 3 mg/kg, route oral; details: in vivo
[23] = AUClast in Sprague-Dawley rat at 3 mg/kg, po; type: ADME, organism-based; parameters: time 0 - last, dose 3 mg/kg, route oral; details: plasma
Rattus norvegicus [24] = experiment: AUClast in Sprague-Dawley rat assessed as 3,5-Dimethyl-4-(4'-hydroxy-3'-isopropylbenzyl)phenoxy]methylphosphonic acid level at 3 mg/kg, iv; type: ADME, organism-based, Plasma; parameters: time 0 - last, dose 3 mg/kg, route intravenous; details: in vivo
Rattus norvegicus [25] = experiment: Half life in Sprague-Dawley rat assessed as 3,5-Dimethyl-4-(4'-hydroxy-3'-isopropylbenzyl)phenoxy]methylphosphonic acid level at 3 mg/kg, po; type: ADME, organism-based; parameters: dose 3 mg/kg, route oral; details: in vivo
[26] = Oral bioavailability in Sprague-Dawley rat at 3 mg/kg; type: ADME, organism-based; details: in vivo
Rattus norvegicus [27] = experiment: Mean absorption time in Sprague-Dawley rat assessed as 3,5-Dimethyl-4-(4'-hydroxy-3'-isopropylbenzyl)phenoxy]methylphosphonic acid level at 3 mg/kg, po; type: ADME, organism-based; parameters: dose 3 mg/kg, route oral; details: in vivo
Rattus norvegicus [28] = experiment: Cmax in Sprague-Dawley rat assessed as 3,5-Dimethyl-4-(4'-hydroxy-3'-isopropylbenzyl)phenoxy]methylphosphonic acid level at 3 mg/kg, po; type: ADME, organism-based; parameters: dose 3 mg/kg, route oral; details: in vivo
[29] = Mean residence time in Sprague-Dawley rat at 3 mg/kg, iv; type: ADME, organism-based; parameters: dose 3 mg/kg, route intravenous; details: in vivo
Rattus norvegicus [30] = experiment: Half life in Sprague-Dawley rat assessed as 3,5-Dimethyl-4-(4'-hydroxy-3'-isopropylbenzyl)phenoxy]methylphosphonic acid level at 3 mg/kg, iv; type: ADME, organism-based; parameters: dose 3 mg/kg, route intravenous; details: in vivo
Rattus norvegicus [31] = experiment: Tmax in Sprague-Dawley rat at 3 mg/kg, po; type: ADME, organism-based; parameters: dose 3 mg/kg, route oral; details: in vivo
Rattus norvegicus [32] = experiment: Half life in Sprague-Dawley rat at 3 mg/kg, iv; type: ADME, organism-based; parameters: dose 3 mg/kg, route intravenous; details: in vivo
Rattus norvegicus [33] = experiment: AUClast in Sprague-Dawley rat assessed as 3,5-Dimethyl-4-(4'-hydroxy-3'-isopropylbenzyl)phenoxy]methylphosphonic acid level at 3 mg/kg, po; type: ADME, organism-based, Plasma; parameters: time 0 - last, dose 3 mg/kg, route oral; details: in vivo
Rattus norvegicus [34] = experiment: Half life in Sprague-Dawley rat at 3 mg/kg, po; type: ADME, organism-based; parameters: dose 3 mg/kg, route oral; details: in vivo
Rattus norvegicus [35] = experiment: Oral bioavailability in Sprague-Dawley rat assessed as 3,5-Dimethyl-4-(4'-hydroxy-3'-isopropylbenzyl)phenoxy]methylphosphonic acid level at 3 mg/kg; type: ADME, organism-based; details: in vivo

SMILES: CC(C)c1cc(Oc2c(Br)cc(NCP(=O)(O)O)cc2Br)ccc1O
Activity (Rattus norvegicus [1]): 47.7%

SMILES: CC(C)c1cc(Oc2c(I)cc(CP(=O)(O)O)cc2I)ccc1O
Activity (Rattus norvegicus [1]): 39.4%

Stability [3]: 79%
Stability [5]: 134 pmol/min/mg
Stability [7]: 11%
SMILES: Cc1cc(OCP(=O)(OCOC(=O)C(C)(C)C)OCOC(=O)C(C)(C)C)cc(C)c1Cc1ccc(O)c(C(C)C)c1
Activity (Rattus norvegicus [2]): 46%
Activity (Rattus norvegicus [4]): 33%
ED50 (Rattus norvegicus [6]): 0.7 mg/kg

SMILES: Cc1cc(OC[P@@]2(=O)OCC[C@@H](c3ccc(Cl)cc3)O2)cc(C)c1Cc1ccc(O)c(C(C)C)c1
Activity (Rattus norvegicus [4]): 28%

Ki [8]: 30.5 nM
SMILES: CC(C)c1cc(Oc2c(Cl)cc(NCP(=O)(O)O)cc2Cl)ccc1O

Ki [8]: 15.5 nM
Ki [9]: 235 nM
SMILES: CC(C)c1cc(Oc2c(Br)cc(CP(=O)(O)O)cc2Br)ccc1O

Ki [9]: 3300 nM
SMILES: COc1cc(OCP(=O)(O)O)cc(OC)c1Cc1ccc(O)c(C(C)C)c1

SMILES: Cc1cc(OC[P@@]2(=O)OCC[C@@H](c3cccnc3)O2)cc(C)c1Cc1ccc(O)c(C(C)C)c1 (relative stereo)
Activity (Rattus norvegicus [4]): 39%

SMILES: Cc1cc(OC[P@@]2(=O)OCC[C@@H](c3cccc(F)c3)O2)cc(C)c1Cc1ccc(O)c(C(C)C)c1 (relative stereo)
Activity (Rattus norvegicus [4]): 46%

SMILES: Cc1cc(OC[P@@]2(=O)OCC[C@@H](c3cc(Cl)cc(Cl)c3)O2)cc(C)c1Cc1ccc(O)c(C(C)C)c1 (relative stereo)
Activity (Rattus norvegicus [4]): 29%

SMILES: Cc1cc(OC[P@@]2(=O)OCC[C@@H](c3ccncc3)O2)cc(C)c1Cc1ccc(O)c(C(C)C)c1 (relative stereo)
Activity (Rattus norvegicus [4]): 29%

SMILES: Cc1cc(OC[P@@]2(=O)OCC[C@@H](c3cccc(Br)c3)O2)cc(C)c1Cc1ccc(O)c(C(C)C)c1 (relative stereo)
Activity (Rattus norvegicus [4]): 0%

SMILES: N[C@@H](Cc1cc(I)c(Oc2ccc(O)c(I)c2)c(I)c1)C(=O)O [LIOTHYRONINE]
Activity (Rattus norvegicus [10]): 4.18 U/min
Activity (Rattus norvegicus [11]): 7.52 U/min

Ki [8]: 2.95 nM
SMILES: Cc1cc(OCP(=O)(O)O)cc(C)c1Cc1ccc(O)c(C(C)C)c1 [MB07344]
Activity (Rattus norvegicus [10]): 1.66 U/min
Activity (Rattus norvegicus [11]): 7.37 U/min
Activity (Rattus norvegicus [1]): 37.2%

MRT (Rattus norvegicus [12]): 7.91 h
Tmax (Rattus norvegicus [13]): 0.6 h
MAT (Rattus norvegicus [14]): 1.29 h
Tmax [15]: 0 h
MRT [16]: 2.49 h
Tmax (Rattus norvegicus [17]): 3.6 h
Cmax (Rattus norvegicus [18]): 600 ng/mL
Cmax (Rattus norvegicus [19]): 92 ng/mL
MRT (Rattus norvegicus [20]): 4.49 h
AUC(0-t) [21]: 260 ng·h/mL
Cmax (Rattus norvegicus [22]): 12 ng/mL
AUC(0-t) [23]: 26 ng·h/mL
AUClast (Rattus norvegicus [24]): 340 ng·h/mL
t1/2 (Rattus norvegicus [25]): 9.25 h
bioavailability [26]: 9.9%
MAT (Rattus norvegicus [27]): 3.4 h
Cmax (Rattus norvegicus [28]): 18 ng/mL
MRT [29]: 1.2 h
t1/2 (Rattus norvegicus [30]): 8.82 h
Tmax (Rattus norvegicus [31]): 2.1 h
t1/2 (Rattus norvegicus [32]): 1.23 h
AUClast (Rattus norvegicus [33]): 135 ng·h/mL
t1/2 (Rattus norvegicus [34]): 0.95 h
F (Rattus norvegicus [35]): 39.2%
SMILES: Cc1cc(OCP2(=O)OCC[C@@H](c3cccc(Cl)c3)O2)cc(C)c1Cc1ccc(O)c(C(C)C)c1 (stereo not given in full) [MB07811]
Activity (Rattus norvegicus [2]): 55%
Activity (Rattus norvegicus [4]): 36%
ED50 (Rattus norvegicus [6]): 0.48 mg/kg

SMILES: Cc1cc(OCC(=O)O)cc(C)c1Cc1ccc(O)c(C(C)C)c1 [SOBETIROME]
Activity (Rattus norvegicus [10]): 4.08 U/min
Activity (Rattus norvegicus [11]): 7.88 U/min

SMILES: O=C(O)Cc1cc(I)c(Oc2ccc(O)c(I)c2)c(I)c1 [TIRATRICOL]
Activity (Rattus norvegicus [10]): 3.68 U/min
Activity (Rattus norvegicus [11]): 7.1 U/min
